The NIST ThermoML archive (doi:10.1021/je501106d)
± gives the expanded uncertainty stated by the source.

Conditions: Liquid, Brillouin scattering

Cc1ccccc1 [toluene]
speed of sound (323.15 K): 1200.8 ± 38 m/s
speed of sound (423.15 K): 806 ± 26 m/s
speed of sound (523.15 K): 425.5 ± 14 m/s
